Experimental data taken from patent US10493061B2, “Compositions and methods comprising 2-(acylamino)imidazoles” (priority 2014, dated 2019).

Tests used:
[1] = Zn^2+ binding, (ZNA)2Zn dimer formation (MeOH precipitation, X-ray, NMR)
Description: The structure of the solid product was confirmed by X-ray crystallography (FIG. 14B). […] HCl in D2O protonates the ligand off the metal center, as evidenced by the disappearance of the diastereotopic benzyllic AB quartet in the dimer and its appearance as a singlet in the monomer. […] Of the analogues evaluated, those with more electron-donating groups at C5 or on the N^2-carbonyl seem to improve activity.

[2] = tested on: pleural effusion (PE1100025) primary metastatic breast cancer cells; test: 12-point dose response, ATP cell viability assay; format: cell-based, human; details: 12-point dose response
[3] = tested on: MCF-10A cells; test: Intracellular Zn^2+ by FluoZin-3 staining and flow cytometry; format: cell-based, human
Method: Measurement of intracellular Zn^2+ by FluoZin-3 staining: Cells were seeded in 6-well plates at a density such that at the time of analysis, wells would be 70-80% confluent. Following the completion of treatment, the drug-containing media was removed and replaced with Hank's Balanced Salt Solution (HBSS, Life Technologies) containing 2.5 μM FluoZin-3. The cells were incubated with the indicator for 30 minutes at room temperature in the dark. After staining, the cells were trypsinized, resuspended in HBSS containing 2% FBS, and relative mean fluorescence was measured by flow cytometry (FACscan, BD Biosciences, San Jose, Calif., USA).
In order to determine whether the transcriptional changes in metal trafficking genes were functionally relevant to ZNA's mechanism of action, intracellular Zn^2+ was quantified using the fluorescent indicator FluoZin-3 followed by flow cytometry analysis (FIG. 1G).
To better understand the cancer-selective synergism observed between ZNA and Zn^2+, an experiment was conducted to measure intracellular Zn^2+ using the fluorescent Zn^2+ indicator FluoZin-3.
Further probing the ability of ZNA to stimulate increases in intracellular Zn^2+, MCF-10A and MCF-7 cells were treated for three hours with 30 μM ZNA (both with and without exogenous ZnSO4) in zinc-free media; intracellular zinc was then quantified by FluoZin-3 staining (FIG. 3B).

[4] = tested on: MCF-10A cells; test: Total cellular Zn^2+ by ICP-AES; format: cell-based, human; details: 30 μM ZNA with 30 μM ZnSO4, three hours; detection limit 1.00 μg/L
Method: (§1) Inductively coupled plasma-atomic emission spectroscopy (ICP-AES) analysis: Cells were cultured to 80% confluence in 10-cm plates and the growth media was then replaced with low serum (2% FBS) drug-containing media. After three hours of treatment, the media was discarded and the cells washed with 1×PBS. To each 10-cm plate, 1 mL of nitric acid (TraceSELECT Ultra for trace analysis, Sigma) was added directly to the plate. The nitric acid mixture was submitted for inductively coupled plasma-atomic emission spectroscopy (ICP-AES) analysis following methods established by the Environmental Protection Agency. Martin T D, Brockhoff C A, Creed J T. Method 200.7 Determination of Metals and Trace Elements in Water and Wastes by Inductively Coupled Plasma-Atomic Emission Spectrometry. Environmental Monitoring Systems Laboratory, US Environmental Protection Agency 1994. The experiment was performed in triplicate for each cell line and a fourth plate of cells was used to measure total protein (BCA assay, Thermo Fisher, Waltham, Mass., USA). The ICP-AES data were then normalized to total protein for each cell line used.
(§2) To further validate the combinatorial effect of ZNA and Zn^2+, inductively coupled plasma-atomic emission spectroscopy (ICP-AES) was employed to quantify absolute levels of cellular Zn^2+ following treatment. Four cell lines were treated with either 30 μM ZNA alone or 30 μM ZNA in conjunction with 30 μM ZnSO4 for three hours before harvesting. The samples were then analyzed by ICP-AES and the resulting data normalized to total protein (FIG. 8). […] The values obtained from the ICP-AES experiment correlate with the trends observed following FluoZin-3 measurements of Zn^2+, confirming the specificity of the fluorophore for Zn^2+ over other ions.

[5] = tested on: MCF-7 cells; test: Total cellular Zn^2+ by ICP-AES; format: cell-based, human; details: 30 μM ZNA with 30 μM ZnSO4, three hours
Method: as §1, §2

[6] = tested on: MDA-MB-231 cells; test: Total cellular Zn^2+ by ICP-AES; format: cell-based, human; details: 30 μM ZNA with 30 μM ZnSO4, three hours
Method: as §1, §2

[7] = tested on: T47D cells; test: Total cellular Zn^2+ by ICP-AES; format: cell-based, human; details: 30 μM ZNA with 30 μM ZnSO4, three hours
Method: as §1, §2

[8] = in vivo; design: species or system Sprague-Dawley rats; details: rat
Method: ZNA has promising pkpd parameters. An initial pharmacokinetic (PK) analysis on ZNA was performed at 1 mg/kg IV, 5 mg/kg PO. ZNA was dosed to female Sprague-Dawley rats at either 1 mg/kg intravenously or at 5 mg/kg orally. Plasma was collected with K2EDTA and stored at −80° C. until analysis. Quantification of ZNA was performed by protein precipitation followed by ultra-high performance liquid chromatography (UHPLC) interfaced to an electrospray ionization quadrapole time-of-flight mass spectrometer (ESI-QTOF). Plasma concentrations were determined from a calibration curve using […]. The values determined were fit with Phoenix WinNonlin and pharmacokinetic values reported.
The plasma concentrations for ZNA were very low, and most samples fell below the lower limit of quantification for the assay (10.0 ng/mL). This limited the data available for fitting in WinNonlin. To increase the amount of data for fitting, values from below the curve were extrapolated to approximately 40% of the LLOQ and were used for PK fitting. The percent of the area extrapolated in the PO PK animals ranged from 34-70% which was considered quite high. […] The oral bioavailability determined was approximately 6%. This value is considered a rough estimate based upon the area extrapolated and the unusually high clearance determined. […] Possible explanations for the high clearance are binding of compound to red blood cells, extremely rapid clearance that requires collection of earlier time points to establish a more accurate CO, and extrahepatic elimination.

[9] = tested on: metal trafficking genes (MT1F, MT1X, MT2A, SLC30A1, SLC30A2) in MCF-7 cells; test: Transcriptome sequencing (RNA-seq); details: 30 μM ZNA, 3 hours, sustained at 12 hours
[10] = tested on: MCF-10A normal mammary epithelial cell line; test: Cell viability (ATP quantification) with exogenously added transition metals
Method: Three breast cancer cell lines (MCF-7, T47D, and MDA-MB-231) and a normal mammary epithelial cell line (MCF-10A) were treated with 30 μM ZNA in conjunction with 30 M CuSO4, ZnSO4, Fe(III)Cl3, Fe(II)SO4, NiSO4, MnCl2, or CoCl2 for 48 hours; following the completion of treatment, cell viability was measured using an ATP quantification assay (FIG. 2A).

COc1ccc(-c2c(Cc3ccccc3)[nH]/c(=N\C(=O)c3ccccc3F)n2C)cc1 [ZNA, (E)-N-(4-benzyl-5-(4-methoxyphenyl)-1-methyl-1H-imidazol-2(3H)-ylidene)-2-fluorobenzamide]
Zn^2+ binding [1]: binds Zn^2+ in a pH dependent fashion | cell viability [2]: effective at low micromolar concentrations | FluoZin-3 fluorescence ([3]; 30 μM ZNA alone, three hours, zinc-free media): no significant increase in FluoZin-3 fluorescence | intracellular zinc (FluoZin-3) ([3]; 30 μM ZNA alone, up to 48 hours): only modest increases in intracellular zinc | increase in FluoZin-3 fluorescence ([3]; 30 μM ZNA with 30 μM ZnSO4, three hours): 9 fold | fluorescence (FluoZin-3) ([3]; ZNA and ZnSO4, three hours, zinc-free media, compared to ZnSO4 alone): reduction in fluorescence | concentration of Zn^2+ [4]: not detectable | concentration of Zn^2+ [5]: 1.35 ng Zn^2+ per microgram of protein | concentration of Zn^2+ [6]: 0.82 ng Zn^2+ per microgram of protein | concentration of Zn^2+ [7]: 0.52 ng Zn^2+ per microgram of protein | bioavailability ([8]; female, Sprague-Dawley): ~6% | half-life ([8]; female, Sprague-Dawley): 1.9 h | clearance relative to hepatic blood flow ([8]; female, Sprague-Dawley, iv): 235% | AUC(0-inf) ([8]; female, Sprague-Dawley, iv, 1 mg/kg, AUCINF_obs): 129 ng·h/mL | AUC ([8]; female, Sprague-Dawley, iv, 1 mg/kg, AUCall): 119 ng·h/mL | MRT inf ([8]; female, Sprague-Dawley, iv, 1 mg/kg, MRTINF_obs): 2.1 h | percent of the area extrapolated ([8]; female, Sprague-Dawley, po): 34-70% | Cmax ([8]; female, Sprague-Dawley, po, 5 mg/kg, Cmax): 11.5 ng/mL | volume of distribution ([8]; iv): very high volume of distribution | metallothionein gene expression (MT1F, MT1X, MT2A) [9]: increased metallothionein gene expression | cell viability ([10]; 30 μM ZNA with CuSO4, 48 hours): significant reduction in cell viability | cell viability ([10]; 30 μM ZNA with ZnSO4, 48 hours): only a partial reduction in cell number
